According to ChEMBL document CHEMBL3885881, “DrugMatrix”:

Species on record: Rattus norvegicus
Assay: DrugMatrix - Regimen: Daily Repeat
Format: toxicity, organism-based, Sprague-Dawley
Parameters: regimen Daily Repeat, gender Male, age 6-8 weeks
Details: in vivo, po, route oral GAVAGE, vehicle .5 % CMC; for ABSOLUTE BASOPHIL / ABSOLUTE EOSINOPHIL / ABSOLUTE LYMPHOCYTE / ABSOLUTE MONOCYTE / ABSOLUTE SEGMENTED NEUTROPHIL / BASOPHIL / EOSINOPHIL / HEMATOCRIT / LEUKOCYTE COUNT / LYMPHOCYTE / MEAN CORPUSCULAR HEMOGLOBIN / MEAN CORPUSCULAR HEMOGLOBIN CONCENTRATION / MEAN CORPUSCULAR VOLUME / MONOCYTE / NEUTROPHIL / NUCLEATED RED BLOOD CELLS / PLATELET COUNT: tissue Blood; for ALANINE AMINOTRANSFERASE / ALBUMIN / ALKALINE PHOSPHATASE / ASPARTATE AMINOTRANSFERASE / BLOOD UREA NITROGEN / CARBON DIOXIDE / CHLORIDE / CHOLESTEROL / CREATININE / GLUCOSE / LACTATE DEHYDROGENASE / LIPASE / PHOSPHORUS / SODIUM / TOTAL BILIRUBIN / TOTAL PROTEIN / URIC ACID: tissue Plasma
[1] = 23 mg/kg, 120 h, dose level High, time 5 day
[2] = […], 72 h, dose 2.5 mg/Kg, dose level Low, time 3 day
[3] = […], 120 h, dose 2.5 mg/Kg, dose level Low, time 5 day

Cc1cc2c(s1)Nc1ccccc1N=C2N1CCN(C)CC1 [OLANZAPINE]
ABSOLUTE BASOPHIL [1]: 0 CELLS/uL | ABSOLUTE EOSINOPHIL [1]: 52 CELLS/uL | ABSOLUTE LYMPHOCYTE [1]: 13243.33 CELLS/uL | ABSOLUTE MONOCYTE [1]: 98.33 CELLS/uL | ABSOLUTE SEGMENTED NEUTROPHIL [1]: 1106.33 CELLS/uL | BASOPHIL [1]: 0% | EOSINOPHIL [1]: 0.33% | HEMATOCRIT [1]: 38.23% | LEUKOCYTE COUNT [1]: 14.5 x10E3/uL | LYMPHOCYTE [1]: 91.33% | MEAN CORPUSCULAR HEMOGLOBIN [1]: 24.67 pg | MEAN CORPUSCULAR HEMOGLOBIN CONCENTRATION [1]: 39.5 G/DL | MEAN CORPUSCULAR VOLUME [1]: 62.5 fL | MONOCYTE [1]: 0.67% | NEUTROPHIL [1]: 7.67% | NUCLEATED RED BLOOD CELLS [1]: 0 /100WBC | PLATELET COUNT [1]: 1008.67 x10E3/uL | ALANINE AMINOTRANSFERASE [1]: 50 u/L | ALBUMIN [1]: 4.4 G/DL | ALKALINE PHOSPHATASE [1]: 282.67 u/L | ASPARTATE AMINOTRANSFERASE [1]: 108.67 u/L | BLOOD UREA NITROGEN [1]: 22.33 mg/dL | CARBON DIOXIDE [1]: 27.33 mmol/L | CHLORIDE [1]: 104.33 MEQ/L | CHOLESTEROL [1]: 78.33 mg/dL | CREATININE [1]: 0.26 mg/dL | GLUCOSE [1]: 150.33 mg/dL | LACTATE DEHYDROGENASE [1]: 306 u/L | LIPASE [1]: 9.33 u/L | PHOSPHORUS [1]: 11.63 mg/dL | SODIUM [1]: 146.17 MEQ/L | TOTAL BILIRUBIN [1]: 0.27 mg/dL | TOTAL PROTEIN [1]: 6.1 G/DL | URIC ACID [1]: 1.4 mg/dL | ABSOLUTE BASOPHIL [2]: 0 CELLS/uL | ABSOLUTE EOSINOPHIL [2]: 116 CELLS/uL | ABSOLUTE LYMPHOCYTE [2]: 13788.67 CELLS/uL | ABSOLUTE MONOCYTE [2]: 239.33 CELLS/uL | ABSOLUTE SEGMENTED NEUTROPHIL [2]: 1189.33 CELLS/uL | BASOPHIL [2]: 0% | EOSINOPHIL [2]: 1% | HEMATOCRIT [2]: 35.03% | LEUKOCYTE COUNT [2]: 15.33 x10E3/uL | LYMPHOCYTE [2]: 90% | MEAN CORPUSCULAR HEMOGLOBIN [2]: 24.27 pg | MEAN CORPUSCULAR HEMOGLOBIN CONCENTRATION [2]: 38.63 G/DL | MEAN CORPUSCULAR VOLUME [2]: 62.87 fL | MONOCYTE [2]: 1.67% | NEUTROPHIL [2]: 7.33% | NUCLEATED RED BLOOD CELLS [2]: 0 /100WBC | PLATELET COUNT [2]: 1228.33 x10E3/uL | ALANINE AMINOTRANSFERASE [2]: 53.33 u/L | ALBUMIN [2]: 4.17 G/DL | ALKALINE PHOSPHATASE [2]: 352.67 u/L | ASPARTATE AMINOTRANSFERASE [2]: 94.33 u/L | BLOOD UREA NITROGEN [2]: 18 mg/dL | CARBON DIOXIDE [2]: 26.67 mmol/L | CHLORIDE [2]: 101 MEQ/L | CHOLESTEROL [2]: 73.67 mg/dL | CREATININE [2]: 0.19 mg/dL | GLUCOSE [2]: 159.67 mg/dL | LACTATE DEHYDROGENASE [2]: 472.67 u/L | LIPASE [2]: 10.33 u/L | PHOSPHORUS [2]: 12.4 mg/dL | SODIUM [2]: 143.67 MEQ/L | TOTAL BILIRUBIN [2]: 0.23 mg/dL | TOTAL PROTEIN [2]: 5.97 G/DL | URIC ACID [2]: 1.73 mg/dL | ABSOLUTE BASOPHIL [3]: 0 CELLS/uL | ABSOLUTE EOSINOPHIL [3]: 0 CELLS/uL | ABSOLUTE LYMPHOCYTE [3]: 12300.67 CELLS/uL | ABSOLUTE MONOCYTE [3]: 35.33 CELLS/uL | ABSOLUTE SEGMENTED NEUTROPHIL [3]: 2030.67 CELLS/uL | BASOPHIL [3]: 0% | EOSINOPHIL [3]: 0% | HEMATOCRIT [3]: 34.77% | LEUKOCYTE COUNT [3]: 14.37 x10E3/uL | LYMPHOCYTE [3]: 84.67% | MEAN CORPUSCULAR HEMOGLOBIN [3]: 25.5 pg | MEAN CORPUSCULAR HEMOGLOBIN CONCENTRATION [3]: 40.57 G/DL | MEAN CORPUSCULAR VOLUME [3]: 62.8 fL | MONOCYTE [3]: 0.33% | NEUTROPHIL [3]: 15% | NUCLEATED RED BLOOD CELLS [3]: 0 /100WBC | PLATELET COUNT [3]: 1181 x10E3/uL | ALANINE AMINOTRANSFERASE [3]: 50.67 u/L | ALBUMIN [3]: 4.2 G/DL | ALKALINE PHOSPHATASE [3]: 327.67 u/L | ASPARTATE AMINOTRANSFERASE [3]: 96.67 u/L | BLOOD UREA NITROGEN [3]: 18.67 mg/dL | CARBON DIOXIDE [3]: 24.67 mmol/L | CHLORIDE [3]: 101 MEQ/L | CHOLESTEROL [3]: 82 mg/dL | CREATININE [3]: 0.23 mg/dL | GLUCOSE [3]: 160.67 mg/dL | LACTATE DEHYDROGENASE [3]: 448.33 u/L | LIPASE [3]: 9.67 u/L | PHOSPHORUS [3]: 12.83 mg/dL | SODIUM [3]: 144.87 MEQ/L | TOTAL BILIRUBIN [3]: 0.27 mg/dL | TOTAL PROTEIN [3]: 5.9 G/DL | URIC ACID [3]: 1.7 mg/dL
